Assays:
p27 protein [1] = assay: Detection of p27 protein by Western blotting in NCI-H460 cell lysate; format: cell-based, human; settings: NCI-H460 cells; 0.3-30 μmol/L; KIP-10 48 hours, KIP-12 24 hours; FIGS. 1 and 3
Procedure: (§1) The p27 protein-inducing activities of KIP-10 (the compound represented by formula (C)) and KIP-12 (the compound represented by formula (D)) were measured as follows.
(§2) Preparation of Cell Lysate:
(§3) NCI-H460 human non-small cell lung cancer cells (ATCC HTB-177), DU-145 human prostate cancer cells (ATCC HTB-81) or HCT116 human colon cancer cells (ATCC CCL-247) were plated in 6-well plates at 2×10^5 cells/well and incubated overnight. Then, the test substance was added to the medium to a final concentration of 0.3 μmol/L, 1 μmol/L, 3 μmol/L, 10 μmol/L or 30 μmol/L or was not added and the cells were incubated at 37° C. in 5% CO2 for 48 or 24 hours. The cells were washed with cold PBS(−), which was then completely removed. 0.35 mL of Cell Lysis Buffer (catalog no. 9803, Cell Signaling) which had been diluted to 1-fold concentration was added, and the mixture was allowed to stand on ice for 10 minutes. The Cell Lysis Buffer in which cells were lysed was collected together with cells and subjected to sonication (speed 1, duty 80) for 10 seconds. […]
(§4) The total protein concentration in the supernatant was determined with a DC Protein Kit (catalog no. 500-0122, Bio-Rad). […] After washing three times with TBS-T, it was immersed in ECL kit reagent (catalog no. RPN2132, Amersham) for 1 minute and the band was detected with a chemiluminescence reader. […]

p27 protein [2] = assay: Detection of p27 protein by Western blotting in DU-145 cell lysate; format: cell-based; settings: DU-145 human prostate cancer cells; 0.3-30 μmol/L; 48 hours; FIG. 2
Procedure: as §1, §2, §3, §4

p27 protein [3] = assay: Quantification of p27 protein by ELISA (p27 protein-inducing activity, EC50); format: cell-based, human; settings: NCI-H460 cells, 48 hours, p27 sandwich ELISA; Table 1-2
Procedure: The p27 protein-inducing activities of the compounds or salts listed in Tables 1-1, 1-2 and 2 below were measured as follows.
as §2
NCI-H460 human non-small cell lung cancer cells (ATCC HTB-177) were plated in 6-well plates at 2×10^5 cells/well and incubated overnight. Then, the test substance was added to the medium to a final concentration of 10000 nmol/L, 3000 nmol/L, 100 nmol/L, 30 nmol/L, 10 nmol/L, 3 nmol/L, 1 nmol/L, 0.3 nmol/L, 0.1 nmol/L, 0.03 nmol/L or 0.01 nmol/L and the cells were incubated at 37° C. in 5% CO2 for 48 hours. 150 μL of Cell Lysis Buffer (catalog no. 9803, Cell Signaling) which had been diluted to 1-fold concentration (1 mM PMSF was added immediately before use) was added, and the mixture was allowed to stand on ice for 10 minutes. The Cell Lysis Buffer in which cells were lysed was collected together with cells with a scraper and transferred to a new tube. It was centrifuged at 15000 rpm for 10 minutes at 4° C. and the supernatant was then transferred to a new tube.
Quantification by Sandwich ELISA:
Anti-p27 monoclonal antibody (catalog no. 71-9600, Zymed) was diluted to 5 μg/mL in 50 mM carbonate coating buffer (0.4 g/L NaCO3, 0.73 g/L NaHCO3 and 0.04 g/L NaN3 in distilled water), and it was then added at 50 μL/well and allowed to stand overnight at 4° C. to bind the antibody. After washing three times with PBS, 200 μL of blocking solution (0.2% I-Block in PBS) was added to each well. After 1 hour of incubation at room temperature, washing with PBS-T (0.05% Tween 20 in PBS) was performed three times. The sample and recombinant p27 protein standard were serially diluted in Cell Lysis Buffer (catalog no. 9803, Cell Signaling) which had been diluted to 1-fold concentration (1 mM PMSF was added immediately before use), and it was then added at 100 μL/well. After 1 hour of incubation at room temperature, washing with 200 μL of PBS-T was performed three times. HRP-labeled anti-p27 antibody (product no. 610243, BD Transdution Laboratories) was diluted 1:2500 (i.e. to 0.1 μg/mL) in 0.2% I-Block/0.05% PBS-T, and it was then added at 100 μL/well. After 1 hour of incubation at room temperature, washing with 200 μL of PBS-T was performed three times. Chromogenic substrate solution (TMB One Solution, catalog no. G7431, Promega) was added at 100 μL/well and allowed to develop a color reaction at room temperature. After stopping the reaction with 50 μL of 1N H2SO4, the absorbance at 450 nm was measured.
Calculation of EC50 Values:
A standard response curve was generated by plotting the amount of p27 protein against the concentration of the test substance. The basal level of response was defined as 0%, while the plateau level where the induction of p27 protein had been maximized was defined as 100%. Finally, the test substance concentration at which 50% induction was achieved was calculated, and it was defined as EC50.

p27 protein [4] = assay: Detection of p27 protein by Western blotting in HCT116 cell lysate; format: cell-based; settings: HCT116 human colon cancer cells; 0.3-30 μmol/L; 24 hours; FIG. 4
Procedure: as §1, §2, §3, §4

| SMILES | p27 protein-inducing activity (Western blotting) (p27 protein [1]) | p27 protein-inducing activity (Western blotting) (p27 protein [2]) | EC50 (p27 protein [3]) | p27 protein-inducing activity (Western blotting) (p27 protein [4]) |
| --- | --- | --- | --- | --- |
| Cc1c(Cc2ccccc2N)c(=O)oc2cc(OC(=O)N(C)C)c(Cl)cc12 [KIP-10, dimethylcarbamic acid 3-(2-aminobenzyl)-6-chloro-4-methyl-2-oxo-2H-1-benzopyran-7-yl ester] | sufficiently high p27 protein-inducing activity | sufficiently high p27 protein-inducing activity | 6 µM |  |
| Cc1nn(Cc2ccc(C(=O)Nc3nc4ccccc4s3)cc2)c(C)c1[N+](=O)[O-] [KIP-12] | sufficiently high p27 protein-inducing activity |  |  | sufficiently high p27 protein-inducing activity |

Source: patent publication US8569378B2, “p27 protein inducer” (Chugai Seiyaku Kabushiki Kaisha, priority 2007, dated 2013)
